Measured values as given in US6472526B1, “Imidazole derivatives having an inhibitory activity for farnesyl transferase and process for preparation thereof” (LG Chemical Ltd., priority 1997, dated 2002).

Columns and labels:
Ras farnesyl transferase [1] = molecular target: T1, Ras farnesyl transferase (Rattus norvegicus, UniProt Q02293+Q04631); assay: In vivo (cellular) inhibitory activity for Ras farnesyl transferase, Rat2 cell line which expresses C-Harvey-Ras protein; type: cell-based
T1 construct: endogenous in cells; host or cells: Rat2 fibroblasts transformed with H-Ras or with an H-Ras/K-Ras C-terminus fusion
Procedure: (§1) In the present experiment, Rat2 cell line which expresses C-Harvey-Ras protein having transforming activity and Rat2 cell line (Korean patent application No. 97-14409) which is transformed with fused protein of H-Ras substituted with polybasic lysine domain at C-terminus of K-Ras were used. The experiment was performed by the modified Declue's method (Declue. J. E. et al., Cancer Research, 1991, 51, 712). Hereinafter, the experimental method will be described in more detail.
(§2) 3×10^5 cells of transformed Rat2 fibroblast cell line were sprayed on 60 mm cell cultivation dish and cultivated for 48 hours in a cell incubator at 37° C. and after 50% or more of density was reached, it was treated with the test compounds. The compound according to the present invention dissolved in dimethylsulfoxide (DMSO) was used. 1% concentration of dimethylsulfoxide was used in both control and test groups. After 4 hours from the treatment with the compound, methionine labeled with 150 μCi of radioactive isotope [^35S] per 1 ml of medium was added and after cultivating for 20 hours, the cells were, washed with physiological saline water. The cells were lysed using 1 ml of cold cell lysis buffer solution (50 mM of Sodium HEPES buffer solution containing 5mM of magnesium chloride, 1 mM of DTT, 1% NP 40, 1 mM of EDTA, 1 mM of PMSF, 2 μM of leupeptin, 2 μM of pepstatin A and 2 μM of antipain) and the supernatant wherein the cells were lysed was obtained by high-velocity centrifugation of 12,000 g×5 minutes. The amount of radioisotope in the supernatant was measured and standardized to obtain a quantitative result in immunoprecipitation reaction and then, Y13-259, a monoclonal antibody specifically binding to Ras protein (Furth, M. E. et al., J. Virol, 1982, 43, 294) was added and reacted for 15 hours at 4° C. Protein A(combined with goat anti-murine immunoglobulin antibody)-agarose suspension was added to the solution and reacted for 1 hour at 4° C. and then, to remove the unspecific binding product, immunoprecipitates were washed with a buffer solution (50 mM Tris chloride buffer solution containing 50 mM of sodium chloride, 0.5% of sodium dioxycolate, 0.5% of NP 40 and 0.1% of SDS). The precipitates were added to a buffer solution for electrophoresis and boiled and then, electrophoresis was performed using 13.5% of SDS polyacrylamide gel. After electrophoresis, the gel was fixed and dried. Then, the gel was exposed to X-ray film, developed printed. From the result of the experiment, intensities of band of in combined with or without farnesyl of Ras protein were measured, the concentration of the test compound inhibiting 50% of farnesyl bonding was defined as […], an in vivo Ras farnesyl transferase inhibitory activity.

Ras farnesyl transferase [2] = molecular target: T1, Ras farnesyl transferase; assay: In vivo (cellular) inhibitory activity for Ras farnesyl transferase, Rat2 cell line transformed with fused protein of H-Ras substituted with polybasic lysine domain at C-terminus of K-Ras; type: cell-based
Procedure: as §1, §2

Ras farnesyl transferase [3] = molecular target: T2, Ras farnesyl transferase (Homo sapiens, UniProt P49354+P49356); assay: In vitro inhibitory activity for Ras farnesyl transferase, K-Ras substrate; type: biochemical
T2 construct: made in house

Ras farnesyl transferase [4] = molecular target: T2, Ras farnesyl transferase; assay: In vitro inhibitory activity for Ras farnesyl transferase, H-Ras substrate; type: biochemical
Procedure: In the present experiment, Ras farnesyl transferase produced by genetic recombination techniques according to the improved Pompliano's method (Pompliano et al., Biochemistry, 1992, 31, 3800) was used, and Ras substrate (Ras-CVLS) protein described in Korean Patent Appln. No. 97-14409 was used after it has been purified according to the known method (see, Chung et al., Biochimica et Biophysica Acta, 1992, 278, 1129).
The enzyme reaction was performed in 50 μl of 50 mM Sodium HEPES buffer solution containing 25 mM of potassium chloride, 25 mM of magnesium chloride, 10 mM of DTT and 50 μM of zinc chloride. 1.5 μM of Ras substrate protein, 0.15 μM of tritium-farnesylpyrophosphate and 4.5 nM of farnesyl transferase were used.
More specifically, in the initial step, farnesyl transferase was added to the above buffer solution, reaction was maintained for 30 minutes at 37° C. and then the reaction was stopped by adding 1 ml of ethanol solution containing 1M HCl. The formed precipitates were adsorbed to GF/B filter using Hopper harvestor(Hopper #FH 225V) for filter-binding, washed with ethanol, and then radioactivity of the dried filter was measured using LKB β counter. Enzyme titer was measured in the unsaturated state of substrate where the concentrations of Ras substrate protein and farnesyl transferase have quantitative relationship. The compound according to the present invention dissolved in dimethyl sulfoxide (DMSO) was added to the reaction solution in an amount of less than 5% of the total reaction solution, and then the enzyme inhibitory activity thereof was measured. The enzyme inhibitory activity was represented by percentage of the amount of farnesyl incorporated into the Ras substrate protein in the presence of the test compound to that in the absence of the test compound. IC50 of the test compound was defined as the concentration at which 50% of the enzyme activity was inhibited.

[5] = Rat2 cell line expressing C-Harvey-Ras, concentration inhibiting 50% of farnesyl bonding of Ras protein, read-out: H-Ras CIC50
[6] = Rat2 cell line transformed with H-Ras fused with polybasic lysine domain of K-Ras C-terminus, concentration inhibiting 50% of farnesyl bonding, read-out: K-Ras CIC50
[7] = in vitro farnesyl transferase assay, K-Ras, read-out: K-Ras IC50
[8] = recombinant farnesyl transferase 4.5 nM, Ras substrate protein 1.5 μM, tritium-farnesylpyrophosphate 0.15 μM, 30 minutes at 37° C., read-out: H-Ras IC50

SMILES	IC50 (Ras farnesyl transferase [1]; [5]) [nM]	IC50 (Ras farnesyl transferase [2]; [6]) [nM]	IC50 (Ras farnesyl transferase [3]; [7]) [nM]	IC50 (Ras farnesyl transferase [4]; [8]) [nM]	IC50 (Ras farnesyl transferase [1]) [nM]	IC50 (Ras farnesyl transferase [2]) [nM]	IC50 (Ras farnesyl transferase [3]) [nM]	IC50 (Ras farnesyl transferase [4]) [nM]
N#Cc1ccc(Cn2cncc2Cn2cc(C(=S)N3CCOCC3)c(-c3cccc4ccccc34)c2)cc1 [Compound 113, 1-[1-(4-Cyanobenzyl)-1H-imidazol-5-yl]methyl-3-(morpholin-4-yl)thiocarbonyl-4-(naphthalen-1-yl)-1H-pyrrole]	< 100	10000 to 100000	< 100	4				
O=C(c1cccc(Br)c1)c1cn(Cc2c[nH]cn2)cc1-c1cccc2ccccc12 [Compound 48]	1000 to 50000	10000 to 100000	10000	150				
O=C(c1ccc(Cl)cc1)c1cn(Cc2c[nH]cn2)cc1-c1cccc2ccccc12 [Compound 56]	1000 to 50000	10000 to 100000	100 to 10000	40				
CN1CCN(C(=O)c2cn(Cc3cncn3Cc3ccc4c(c3)OCO4)cc2-c2cccc3ccccc23)CC1 [Compound 3, 1-[1-(3,4-Methylenedioxybenzyl)-1H-imidazol-5-ylmethyl]-3-(4-methylpiperazin-1-yl)carbonyl-4-(naphthalen-1-yl)-1H-pyrrole]	25	15000	2.4	1				
N#Cc1ccc(Cn2cncc2Cn2cc(C(=O)c3cccs3)c(-c3cccc4ccccc34)c2)cc1 [Compound 73, 1-[1-(4-Cyanobenzyl)-1H-imidazol-5-yl]methyl-4-(naphthalen-1-yl)-3-(thiophen-2-yl)carbonyl-1H-pyrrole]	200	> 10000	20	2				
CN1CCN(C(=O)c2cn(Cc3cncn3Cc3ccc(Cl)cc3)cc2-c2cccc3ccccc23)CC1 [Compound 126, 1-[1-(4-Chlorobenzyl)-1H-imidazol-5-yl]methyl-3-[4-methylpiperazin-1-yl]carbonyl-4-(naphthalen-1-yl)-1H-pyrrole]	12	5000	4	1				
N#Cc1ccc(Cn2cncc2Cn2cc(C(=O)c3ccsc3)c(-c3cccc4ccccc34)c2)cc1 [Compound 74]	100 to 1000	10000 to 100000	10 to 100	10				
O=C(c1ccccc1Br)c1cn(Cc2c[nH]cn2)cc1-c1cccc2ccccc12 [Compound 47]	1000 to 50000	10000 to 100000	100 to 10000	90				
CSCCc1ccc(C(=O)c2cn(Cc3c[nH]cn3)cc2-c2cccc3ccccc23)cc1 [Compound 62]	1000 to 50000	10000 to 100000	100 to 10000	68				
COCCN(C)C(=O)c1cn(Cc2cncn2Cc2ccc3ccccc3c2)cc1-c1cccc2ccccc12 [Compound 29, 3-[N-(2-Methoxyethyl)-N-methyl]carbamoyl-4-(naphthalen-1-yl)-1-[1-(naphthalen-2-yl)methyl-1H-imidazol-5-yl]methyl-1H-pyrrole]	10	10000 to 20000	4	2				
O=C(c1cn(Cc2c[nH]cn2)cc1-c1cccc2ccccc12)N1CCNCC1 [Compound 88]	1000 to 50000	10000 to 100000	100 to 10000	600				
CC(C)C[C@H](NC(=O)c1cn(Cc2cncn2Cc2ccc(C#N)cc2)cc1-c1cccc2ccccc12)C(=O)O [Compound 103]	100 to 10000	10000 to 100000	1700	64				
O=C(c1ccn(Cc2cncn2Cc2ccc(Br)cc2)c1)c1cccc2ccccc12 [Compound 140, 1-[1-(4-Bromobenzyl)-1H-imidazol-5-yl]methyl-3-(naphthalen-1-yl)carbonyl-1H-pyrrole]					1000 to 10000	10000 to 50000	10000 to 50000	90
N#Cc1ccc(Cn2cncc2Cn2cc(C(=O)c3cccc(Br)c3)c(-c3cccc4ccccc34)c2)cc1 [Compound 76]	100 to 1000	10000 to 100000	100 to 10000	4				
CC(c1ccccc1)n1cncc1Cn1cc(C(=O)N2CCOCC2)c(-c2cccc3ccccc23)c1 (stereo in doubt) [Compound 9, 1-[1-((R)-α-Methylbenzyl)-1H-imidazol-5-ylmethyl]-3-(morpholin-4-yl)carbonyl-4-(naphthalen-1-yl)-1H-pyrrole]	25	10000 to 50000	6.6	5				
O=C(c1cn(Cc2c[nH]cn2)cc1-c1cccc2ccccc12)N1CCCCC1 [Compound 84]	1000 to 50000	10000 to 100000	1830	720				
COc1ccc(CCn2cncc2Cn2cc(C(=O)N3CCN(C)CC3)c(-c3cccc4ccccc34)c2)cc1 [Compound 20, 1-[1-(4-Methoxy)phenethyl-1H-imidazol-5-yl]methyl-3-[4-methylpiperazin-1-yl]carbonyl-4-(naphthalen-1-yl)-1H-pyrrole]	20	10000 to 50000	2	1				
O=C(c1ccccc1)c1cn(Cc2c[nH]cn2)cc1-c1cccc2ccccc12 [Compound 46]	1000 to 50000	10000 to 100000	100 to 10000	120				
O=C(c1nc(Cc2cnc[nH]2)oc1-c1cccc2ccccc12)N1CCOCC1 [Compound 143, 2-(1H-Imidazol-5-ylmethyl)-4-(morpholin-4-yl)carbonyl-5-(naphthalen-1-yl)oxazole]	20000	> 50000	> 50000	1200				
CN1CCN(C(=O)c2cn(Cc3cncn3Cc3ccccc3Cl)cc2-c2cccc3ccccc23)CC1 [Compound 133, 1-[1-(2-Chlorobenzyl)-1H-imidazol-5-yl]methyl-3-(4-methylpiperazin-1-yl)carbonyl-4-(naphthalen-1-yl)-1H-pyrrole]	25	10000 to 50000	2	0.65				
O=C(Nc1ccccc1)c1cn(Cc2c[nH]cn2)cc1-c1cccc2ccccc12 [Compound 82]	1000 to 50000	10000 to 100000	100 to 10000	400				
N#Cc1ccc(CNC(=O)c2cn(Cc3c[nH]cn3)cc2-c2cccc3ccccc23)cc1 [Compound 98]	1000 to 50000	10000 to 100000	100 to 10000	900				
O=C(c1cn(Cc2c[nH]cn2)cc1-c1cccc2ccccc12)N1CCC(O)CC1 [Compound 91]	1000 to 50000	10000 to 100000	100 to 10000	2150				
O=C(c1cn(Cc2c[nH]cn2)cc1-c1ccc2c3c(cccc13)CC2)N1CCOCC1 [Compound 97]	10000 to 100000	10000 to 100000	10000 to 100000	12000				
